Measured values from the kinase profiling compilation of Christmann-Franck et al. (2016).
pKd: −log10 of the molar value. One block for each molecule: values may come before it.

Key:
[1] = molecular target: CSF1R (human) (UniProt P07333); test: KINOMEscan competition binding; details: compound 10.0 µM
[2] = molecular target: BRSK2 (human) (UniProt Q8IWQ3)
[3] = molecular target: LTK (human) (UniProt P29376)
[4] = molecular target: PAK2 (human) (UniProt Q13177)
[5] = molecular target: PRKAA1 (human) (UniProt Q13131)
[6] = molecular target: PTK2 (human) (UniProt Q05397)
PTK2 (human), sequence (Q05397 whole entry, looked up): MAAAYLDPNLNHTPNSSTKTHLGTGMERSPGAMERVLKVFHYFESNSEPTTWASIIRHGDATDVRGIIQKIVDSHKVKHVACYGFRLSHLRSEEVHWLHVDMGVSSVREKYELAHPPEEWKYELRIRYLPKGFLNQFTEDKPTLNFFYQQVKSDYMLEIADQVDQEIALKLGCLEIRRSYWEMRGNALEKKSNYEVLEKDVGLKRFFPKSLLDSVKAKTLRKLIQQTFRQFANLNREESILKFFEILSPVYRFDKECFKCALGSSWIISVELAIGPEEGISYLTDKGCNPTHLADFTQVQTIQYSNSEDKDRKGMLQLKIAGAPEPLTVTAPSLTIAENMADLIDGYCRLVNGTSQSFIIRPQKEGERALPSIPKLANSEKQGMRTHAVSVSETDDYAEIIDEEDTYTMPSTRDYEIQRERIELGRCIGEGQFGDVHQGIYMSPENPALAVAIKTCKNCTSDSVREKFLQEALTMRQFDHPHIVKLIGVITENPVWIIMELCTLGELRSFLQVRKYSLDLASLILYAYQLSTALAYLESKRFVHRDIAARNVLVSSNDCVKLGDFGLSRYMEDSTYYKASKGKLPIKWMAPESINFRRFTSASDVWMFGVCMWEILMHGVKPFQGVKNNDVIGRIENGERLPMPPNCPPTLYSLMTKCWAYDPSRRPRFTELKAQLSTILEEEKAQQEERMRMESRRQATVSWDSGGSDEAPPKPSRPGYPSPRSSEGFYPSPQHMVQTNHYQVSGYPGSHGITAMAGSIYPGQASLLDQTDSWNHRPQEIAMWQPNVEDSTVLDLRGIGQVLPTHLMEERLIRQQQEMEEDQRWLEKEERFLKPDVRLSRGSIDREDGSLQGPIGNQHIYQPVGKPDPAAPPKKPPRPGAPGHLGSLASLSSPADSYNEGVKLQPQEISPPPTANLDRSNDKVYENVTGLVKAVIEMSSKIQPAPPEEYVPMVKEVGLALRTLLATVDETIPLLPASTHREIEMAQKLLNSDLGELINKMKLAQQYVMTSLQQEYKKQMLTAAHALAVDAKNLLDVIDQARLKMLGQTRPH

[7] = molecular target: PTK2B (human) (UniProt Q14289)
PTK2B (human), sequence (Q14289 whole entry, looked up): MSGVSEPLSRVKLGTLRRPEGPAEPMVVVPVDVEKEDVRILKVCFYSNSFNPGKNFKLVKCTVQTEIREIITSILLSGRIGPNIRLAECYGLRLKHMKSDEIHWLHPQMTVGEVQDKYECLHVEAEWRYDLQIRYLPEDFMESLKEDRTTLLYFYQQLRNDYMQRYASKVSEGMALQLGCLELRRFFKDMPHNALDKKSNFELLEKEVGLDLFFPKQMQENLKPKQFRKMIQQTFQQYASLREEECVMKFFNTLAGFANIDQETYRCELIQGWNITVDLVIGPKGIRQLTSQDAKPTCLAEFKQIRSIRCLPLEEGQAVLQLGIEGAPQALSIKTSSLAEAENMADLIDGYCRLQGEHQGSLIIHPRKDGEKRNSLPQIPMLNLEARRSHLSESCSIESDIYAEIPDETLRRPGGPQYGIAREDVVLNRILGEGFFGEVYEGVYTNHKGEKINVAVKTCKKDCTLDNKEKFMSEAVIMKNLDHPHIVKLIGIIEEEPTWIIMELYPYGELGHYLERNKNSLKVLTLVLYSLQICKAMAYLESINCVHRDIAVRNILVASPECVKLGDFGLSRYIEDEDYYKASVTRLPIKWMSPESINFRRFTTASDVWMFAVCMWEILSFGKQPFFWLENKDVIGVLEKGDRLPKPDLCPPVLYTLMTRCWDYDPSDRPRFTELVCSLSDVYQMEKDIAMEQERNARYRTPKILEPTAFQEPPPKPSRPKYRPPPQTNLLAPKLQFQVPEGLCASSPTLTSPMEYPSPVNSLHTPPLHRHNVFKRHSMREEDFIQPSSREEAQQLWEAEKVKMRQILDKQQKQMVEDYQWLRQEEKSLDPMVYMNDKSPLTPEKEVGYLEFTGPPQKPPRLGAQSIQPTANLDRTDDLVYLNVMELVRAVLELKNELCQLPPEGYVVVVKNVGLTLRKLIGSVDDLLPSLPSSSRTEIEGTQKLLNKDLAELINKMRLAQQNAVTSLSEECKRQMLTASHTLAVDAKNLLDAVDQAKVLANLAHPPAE

[8] = molecular target: ROS1 (human) (UniProt P08922)
[9] = molecular target: RPS6KA4 KD1 (human) (UniProt O75676)
[10] = molecular target: RPS6KA5 KD1 (human) (UniProt O75582)
[11] = molecular target: TYK2 JH1 catalytic (human) (UniProt P29597)
TYK2 JH1 catalytic (human), sequence (P29597 whole entry, looked up): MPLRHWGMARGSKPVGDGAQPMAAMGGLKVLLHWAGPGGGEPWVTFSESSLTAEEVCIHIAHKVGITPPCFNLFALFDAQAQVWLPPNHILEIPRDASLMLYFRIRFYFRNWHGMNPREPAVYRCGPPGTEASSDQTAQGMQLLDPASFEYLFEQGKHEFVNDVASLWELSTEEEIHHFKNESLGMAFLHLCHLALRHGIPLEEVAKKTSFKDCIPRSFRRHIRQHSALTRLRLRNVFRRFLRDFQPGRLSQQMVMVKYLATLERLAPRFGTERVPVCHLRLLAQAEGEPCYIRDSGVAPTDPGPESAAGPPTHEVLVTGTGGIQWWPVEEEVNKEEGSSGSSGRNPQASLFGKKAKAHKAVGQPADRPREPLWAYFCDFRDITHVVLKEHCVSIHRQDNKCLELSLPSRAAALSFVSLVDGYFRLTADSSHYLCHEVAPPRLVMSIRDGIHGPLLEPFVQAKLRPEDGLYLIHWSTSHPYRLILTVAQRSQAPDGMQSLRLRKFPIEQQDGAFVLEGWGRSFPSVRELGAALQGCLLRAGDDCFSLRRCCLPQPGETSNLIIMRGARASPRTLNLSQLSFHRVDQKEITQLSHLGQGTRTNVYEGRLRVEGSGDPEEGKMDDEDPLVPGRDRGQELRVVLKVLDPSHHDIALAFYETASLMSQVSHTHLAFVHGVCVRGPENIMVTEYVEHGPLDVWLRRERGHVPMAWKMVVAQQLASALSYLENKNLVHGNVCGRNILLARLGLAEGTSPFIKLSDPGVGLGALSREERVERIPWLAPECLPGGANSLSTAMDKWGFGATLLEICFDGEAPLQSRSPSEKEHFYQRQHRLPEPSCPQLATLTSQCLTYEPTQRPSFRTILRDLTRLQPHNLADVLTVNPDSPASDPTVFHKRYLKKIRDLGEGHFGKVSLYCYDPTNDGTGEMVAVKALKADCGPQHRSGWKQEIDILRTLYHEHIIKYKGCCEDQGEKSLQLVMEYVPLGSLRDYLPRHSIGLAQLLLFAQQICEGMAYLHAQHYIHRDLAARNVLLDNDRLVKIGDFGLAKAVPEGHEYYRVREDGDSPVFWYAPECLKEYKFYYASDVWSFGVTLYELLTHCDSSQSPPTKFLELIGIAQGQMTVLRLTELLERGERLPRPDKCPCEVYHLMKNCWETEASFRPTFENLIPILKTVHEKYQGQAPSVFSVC

[12] = molecular target: TXK (human) (UniProt P42681)

CSF1R (human), sequence (P07333 whole entry, looked up): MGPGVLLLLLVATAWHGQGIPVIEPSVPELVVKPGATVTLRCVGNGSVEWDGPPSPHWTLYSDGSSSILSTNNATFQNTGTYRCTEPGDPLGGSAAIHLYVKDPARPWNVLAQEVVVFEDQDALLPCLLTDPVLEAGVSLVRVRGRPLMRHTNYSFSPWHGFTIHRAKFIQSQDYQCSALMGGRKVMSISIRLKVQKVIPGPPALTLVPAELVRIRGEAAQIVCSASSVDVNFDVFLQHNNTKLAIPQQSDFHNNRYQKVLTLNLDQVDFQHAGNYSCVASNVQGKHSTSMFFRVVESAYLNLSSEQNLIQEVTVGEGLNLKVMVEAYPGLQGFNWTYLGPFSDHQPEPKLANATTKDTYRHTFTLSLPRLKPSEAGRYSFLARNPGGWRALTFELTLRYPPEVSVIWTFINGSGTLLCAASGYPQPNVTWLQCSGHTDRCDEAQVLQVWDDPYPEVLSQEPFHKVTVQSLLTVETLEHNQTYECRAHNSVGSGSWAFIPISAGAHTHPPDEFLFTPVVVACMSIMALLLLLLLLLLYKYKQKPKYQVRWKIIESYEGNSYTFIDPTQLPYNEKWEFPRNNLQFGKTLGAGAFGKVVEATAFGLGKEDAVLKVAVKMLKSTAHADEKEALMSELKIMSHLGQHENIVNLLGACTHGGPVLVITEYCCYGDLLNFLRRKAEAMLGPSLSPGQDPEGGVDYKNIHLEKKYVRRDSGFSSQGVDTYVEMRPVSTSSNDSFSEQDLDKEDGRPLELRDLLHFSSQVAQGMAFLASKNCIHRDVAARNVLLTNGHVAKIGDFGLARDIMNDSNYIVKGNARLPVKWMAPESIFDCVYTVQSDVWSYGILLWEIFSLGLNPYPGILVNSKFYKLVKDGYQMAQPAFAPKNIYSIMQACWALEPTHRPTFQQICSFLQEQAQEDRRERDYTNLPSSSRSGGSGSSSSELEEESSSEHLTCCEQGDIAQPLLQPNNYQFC
PAK2 (human), sequence (Q13177 whole entry, looked up): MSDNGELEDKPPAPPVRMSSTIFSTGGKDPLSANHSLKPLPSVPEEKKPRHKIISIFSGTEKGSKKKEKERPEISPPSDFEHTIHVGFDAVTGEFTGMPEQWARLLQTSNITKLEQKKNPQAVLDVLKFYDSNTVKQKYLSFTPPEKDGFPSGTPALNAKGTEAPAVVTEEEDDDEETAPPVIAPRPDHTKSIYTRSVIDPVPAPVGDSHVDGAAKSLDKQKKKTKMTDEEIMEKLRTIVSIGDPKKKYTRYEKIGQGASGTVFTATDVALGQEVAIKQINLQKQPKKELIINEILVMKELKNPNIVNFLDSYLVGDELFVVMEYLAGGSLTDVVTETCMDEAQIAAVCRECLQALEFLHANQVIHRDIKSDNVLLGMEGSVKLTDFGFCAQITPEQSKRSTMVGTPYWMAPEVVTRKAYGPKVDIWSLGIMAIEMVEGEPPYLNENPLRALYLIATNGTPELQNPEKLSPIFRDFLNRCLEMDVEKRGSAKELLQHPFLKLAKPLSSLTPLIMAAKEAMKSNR

Structure (SMILES): CCS(=O)(=O)Nc1ccc2c(c1)[C@H](/C(=N/c1ccc(CN3CCCCC3)cc1)c1ccccc1)C(=O)N2
kinase still bound, per cent of control [1]: 0%
pKd [2]: 7.04
pKd [3]: 7.28
pKd [4]: 4.85
pKd [5]: 7.72
pKd [6]: 7.48
pKd [7]: 8.00
pKd [8]: 7.11
pKd [9]: 7.03
pKd [10]: 7.51
pKd [11]: 7.12

Structure (SMILES): Cc1ccc(NC(=O)c2cccc(N3CCCCC3)c2)cc1-c1ccc(C(=O)NCC2CC2)cc1
kinase still bound, per cent of control [1]: no effect (inactive)

Structure (SMILES): Cc1ccc(C(=O)Nc2cccc(C(C)(C)C)c2)cc1-c1ccc(C(=O)NCC2CC2)cc1
pKd [12]: 7.10

Structure (SMILES): O=C(Nc1n[nH]c2nc(-c3cccc(O)c3)ccc12)C1CC1
kinase still bound, per cent of control [1]: no effect (inactive)

The next lines start with the values.

kinase still bound, per cent of control [1]: no effect (inactive)
Structure (SMILES): c1ccc(-c2n[nH]cc2-c2ccnc3ccccc23)nc1

kinase still bound, per cent of control [1]: no effect (inactive)
Structure (SMILES): CC(=O)c1c(-c2ccncc2)[nH]c(-c2ccncc2)c1C
